Here are results for 1 substance from patent publication US10604794B2, “Method to measure the shortest telomeres” (The Board of Regents of The University of Texas System, priority 2017, dated 2020).

Assay [1] concerns H2087 cells. Description: TRF analysis of telomere length in H2087 cells under long-term imetelstat treatment. Format: cell-based. Particulars: 1 μM imetelstat 3 times per week, 10 and 18 weeks treatment. Here is the method:
(§1) FIGS. 2A-2C. Measuring TL in long-term telomerase inhibition with imetelstat (1 μM) treatment and after a removal of drug in H2087 cells. (2A) Isolated DNA from H2087 cells with 1 μM imetelstat treatment for 0, 10 and 18 weeks, and post released from 18 weeks for 1, 2, 3, 4, and 5 weeks was digested with the same REs for TeSLA (BfaI/CviAII/MseI/NdeI) and then separated with 0.7% agarose gel for TRF analysis. (2B) Interphase Q-FISH; cells from H2087 with 0, and 18 weeks 1 μM imetelstat treatment, and 5 weeks after drug removal were used to measure TL by Q-FISH. The results were quantified using TFL-Telo software (n: numbers of nuclei were quantified for each time point as indicated above). (2C) Results of TeSLA using DNA as indicated. Four TeSLA reactions (30 pg of each reaction) were performed for each DNA sample.
(§2) To further examine the utility of TeSLA in studying telomere dynamics, the inventors evaluated TL dynamics in a telomerase positive non-small cell lung cancer (NSCLC) cell line (H2087). These cells were subjected to long-term telomerase inhibition treatment and then released to observe the dynamic of telomere re-elongation. The results were compared using TeSLA, TRF and telomere Q-FISH. […] In contrast, TeSLA is able to detect TL in both imetelstat treated cells and cells post released from drug in a much more quantitative manner (FIG. 2C). […]

The test system of assay [2] is H2087 cells. Description: Interphase Q-FISH telomere length in H2087 cells under long-term imetelstat treatment. Particulars: 1 μM imetelstat, 18 weeks treatment compared to 0 weeks and 5 weeks after drug removal. The class given is cell-based. The procedure:
as §1, §2

The test system of assay [3] is NSCLC cell lines. The following applies: long-term treatment, multiple NSCLC cell lines; cited from earlier work.
Assay [4] concerns telomerase. Particulars: binds to the active site of telomerase RNA; cited from earlier work.

On to imetelstat, for which the “average TL change by TRF analysis” value in assay [1] is given as “average TL shortening”. The “telomere signals by Q-FISH” value in assay [2] is listed as “only a few telomere signals with relatively low intensity were detected”. Further, in assay [3], the “average TL change” value is on record as “shorten average TL”. The telomerase activity result in assay [4] is recorded as “robustly inhibits telomerase activity”.
